Biological target: T1, P2X4 receptor (Homo sapiens, UniProt Q99571)
T1 construct: expressed in transfected cells; host or cells: 1321N1 astrocytoma cells, retroviral vector pQCXIN, G418 selection, monoclones
T1 sequence (Q99571 1-388): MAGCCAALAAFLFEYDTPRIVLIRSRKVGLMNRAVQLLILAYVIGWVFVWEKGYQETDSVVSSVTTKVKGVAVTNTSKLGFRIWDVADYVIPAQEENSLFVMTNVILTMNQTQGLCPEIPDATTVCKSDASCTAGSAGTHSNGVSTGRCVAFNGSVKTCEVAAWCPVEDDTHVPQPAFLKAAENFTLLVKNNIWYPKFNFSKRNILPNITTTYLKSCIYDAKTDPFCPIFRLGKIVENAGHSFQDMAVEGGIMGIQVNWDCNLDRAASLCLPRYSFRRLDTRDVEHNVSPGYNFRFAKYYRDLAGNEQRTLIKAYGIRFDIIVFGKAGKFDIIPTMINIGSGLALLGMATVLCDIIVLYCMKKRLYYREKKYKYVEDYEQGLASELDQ
Test: Measurement of Ca2+ influx in transfected 1321N1 astrocytoma cells (P2X4 inhibitory potency)
Assay type: cell-based
Settings: agonist-mediated Ca2+ influx, FLUO-4, 1321N1 astrocytoma cells; antagonists added 30 min before agonist
Summary of the method: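 Stable 1321N1 astrocytoma cells expressing human P2X4, loaded with FLUO-4 AM (2.4 μM) in HBSS/HEPES pH 7.3 for 1 h at 23 °C. Antagonists added 30 min before agonist; fluorescence at 520 nm recorded for 30 s. Compounds tested at 7–8 concentrations spanning three log units.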

**Q.** `Cc1nsc(-c2ccc(C)c(NCC(=O)N3CCc4c3cccc4C(C)(C)OC(=O)C(O)CO)c2)n1` (stereo not shown) [Example 67, 2-(1-((2-methyl-5-(3-methyl-1,2,4-thiadiazol-5-yl)phenyl)glycyl)indolin-4-yl)propan-2-yl 2,3-dihydroxy-propanoate] was tested. Which IC50 did it give?
**A.** Its IC50 is 20 to 39 nM.

**Q.** How did the IC50 turn out when `Cc1nsc(-c2ccc(C)c(NCC(=O)N3CCc4c(N5CCC(O)C5)cccc43)c2)n1` (stereo not shown) [Example 68, 1-(4-(3-hydroxypyrrolidin-1-yl)indolin-1-yl)-2-((2-methyl-5-(3-methyl-1,2,4-thiadiazol-5-yl)phenyl)amino)ethan-1-one] was run?
**A.** The IC50 was 20 to 39 nM.

**Q.** How did the IC50 turn out when `Cc1nsc(-c2ccc(C)c(NCC(=O)N3CCc4c(CS(C)(=N)=O)cccc43)c2)n1` (stereo not shown) [Example 69, imino(methyl)((1-((2-methyl-5-(3-methyl-1,2,4-thiadiazol-5-yl)phenyl)glycyl)indolin-4-yl)methyl)sulfanone] was run?
**A.** Its IC50 is > 100 nM.

**Q.** For `Cc1nsc(-c2ccc(C)c(NCC(=O)N3CCc4c(-c5cc[nH]n5)cccc43)c2)n1` [Example 70, 1-(4-(1H-pyrazol-3-yl)indolin-1-yl)-2-((2-methyl-5-(3-methyl-1,2,4-thiadiazol-5-yl)phenyl)amino)ethan-1-one], which IC50 is on record?
**A.** Its IC50 is 0.1 to 19 nM.

**Q.** `CCc1nsc(-c2ccc(F)c(NCC(=O)N3CCc4c(N5CCC(O)C5)cccc43)c2)n1` (stereo not shown) [Example 71, 2-((5-(3-ethyl-1,2,4-thiadiazol-5-yl)-2-fluorophenyl)amino)-1-(4-(3-hydroxypyrrolidin-1-yl)indolin-1-yl)ethan-1-one] was tested. Which IC50 did it give?
**A.** Its IC50 is 0.1 to 19 nM.

**Q.** `CCc1nsc(-c2ccc(C)c(NCC(=O)N3CCc4c(N5CCNCC5)cccc43)c2)n1` [Example 72, 2-((5-(3-ethyl-1,2,4-thiadiazol-5-yl)-2-methylphenyl)amino)-1-(4-(piperazin-1-yl)indolin-1-yl)ethan-1-one] was tested. Which IC50 did it give?
**A.** Its IC50 is 20 to 39 nM.

**Q.** `Cc1ccc(-c2ccc(C)c(NCC(=O)N3CCc4c(-c5c[nH]cn5)cccc43)c2)o1` [Example 73, 1-(4-(1H-imidazol-4-yl)indolin-1-yl)-2-((2-methyl-5-(5-methylfuran-2-yl)phenyl)amino)ethan-1-one] was tested. Which IC50 did it give?
**A.** Its IC50 is 40 to 69 nM.

**Q.** How did the IC50 turn out when `Cc1nsc(-c2ccc(C)c(NCC(=O)N3CCc4c(N)cccc43)c2)n1` [Example 74, 1-(4-aminoindolin-1-yl)-2-((2-methyl-5-(3-methyl-1,2,4-thiadiazol-5-yl)phenyl)amino)ethan-1-one] was run?
**A.** Its IC50 is 20 to 39 nM.

**Q.** With `Cc1noc(-c2ccc(F)c(NCC(=O)N3CCc4c(N)cccc43)c2)n1` [Example 75, 1-(4-aminoindolin-1-yl)-2-((2-fluoro-5-(3-methyl-1,2,4-oxadiazol-5-yl)phenyl)-amino)ethan-1-one] as the compound, how does the IC50 read?
**A.** Its IC50 is 70 to 99 nM.

**Q.** With `CC(=O)Nc1cccc2c1CCN2C(=O)CNc1cc(-c2nc(C)ns2)ccc1C` [Example 76, N-(1-((2-methyl-5-(3-methyl-1,2,4-thiadiazol-5-yl)phenyl)-glycyl)indolin-4-yl) acetamide] as the compound, how does the IC50 read?
**A.** Its IC50 is 0.1 to 19 nM.

**Q.** With `CC(=O)N(c1cccc2c1CCN2C(=O)CNc1cc(-c2nc(C)ns2)ccc1C)S(C)(=O)=O` [Example 77, N-(1-((2-methyl-5-(3-methyl-1,2,4-thiadiazol-5-yl)phenyl)-glycyl)indolin-4-yl)-N-(methylsulfonyl)acetamide] as the compound, how does the IC50 read?
**A.** The IC50 was 20 to 39 nM.

**Q.** For `Cc1nsc(-c2ccc(C)c(NCC(=O)N3CCc4c3cccc4N(S(C)(=O)=O)S(C)(=O)=O)c2)n1` [Example 78, N-(1-((2-methyl-5-(3-methyl-1,2,4-thiadiazol-5-yl)phenyl)glycyl)indolin-4-yl)-N-(methylsulfonyl) methanesulfonamide], which IC50 is on record?
**A.** The IC50 was 0.1 to 19 nM.

**Q.** For `Cc1nsc(-c2ccc(C)c(NCC(=O)N3CCc4c3cccc4N3C(=O)C=CC3=O)c2)n1` [Example 79, 1-(1-((2-methyl-5-(3-methyl-1,2,4-thiadiazol-5-yl)phenyl)-glycyl)indolin-4-yl)-1H-pyrrole-2,5-dione], which IC50 is on record?
**A.** The IC50 was 0.1 to 19 nM.

**Q.** For `Cc1nsc(-c2ccc(C)c(NCC(=O)N3CCc4c3cccc4N3C(=O)CC(N)C3=O)c2)n1` (stereo not shown) [Example 80, 3-amino-1-(1-((2-methyl-5-(3-methyl-1,2,4-thiadiazol-5-yl)phenyl)glycyl)indolin-4-yl) pyrrolidine-2,5-dione], which IC50 is on record?
**A.** The IC50 was 0.1 to 19 nM.

**Q.** How did the IC50 turn out when `Cc1nsc(-c2ccc(C)c(NCC(=O)N3CCc4c(NC(=O)[C@H]5CCCN5)cccc43)c2)n1` [Example 81, (R)-N-(1-((2-methyl-5-(3-methyl-1,2,4-thiadiazol-5-yl)phenyl)glycyl)indolin-4-yl) pyrrolidine-2-carboxamide] was run?
**A.** The IC50 was 0.1 to 19 nM.

**Q.** For `Cc1nsc(-c2ccc(C)c(NCC(=O)N3CCc4c(NC(=O)[C@H](O)[C@@H](O)C(=O)O)cccc43)c2)n1` [Example 82, (2R,3R)-2,3-dihydroxy-4-((1-((2-methyl-5-(3-methyl-1,2,4-thiadiazol-5-yl)phenyl)-glycyl)indolin-4-yl)amino)-4-oxobutanoic acid], which IC50 is on record?
**A.** Its IC50 is 70 to 99 nM.

**Q.** How did the IC50 turn out when `Cc1noc(-c2ccc(C)c(NCC(=O)N3CCc4c3cccc4N3C(=O)CNC3=O)c2)n1` [Example 83, 3-(1-((2-methyl-5-(3-methyl-1,2,4-oxadiazol-5-yl)phenyl)glycyl)indolin-4-yl)imidazolidine-2,4-dione] was run?
**A.** The IC50 was 20 to 39 nM.

**Q.** With `CCc1nsc(-c2ccc(C)c(NCC(=O)N3CCc4c(O)cccc43)c2)n1` [Example 84, 2-((5-(3-ethyl-1,2,4-thiadiazol-5-yl)-2-methylphenyl)amino)-1-(4-hydroxyindolin-1-yl) ethan-1-one] as the compound, how does the IC50 read?
**A.** Its IC50 is 0.1 to 19 nM.

**Q.** With `Cc1nsc(-c2ccc(C)c(NCC(=O)N3CCc4c(O)cccc43)c2)n1` [Example 85, 1-(4-hydroxyindolin-1-yl)-2-((2-methyl-5-(3-methyl-1,2,4-thiadiazol-5-yl)phenyl)-amino)ethan-1-one] as the compound, how does the IC50 read?
**A.** Its IC50 is 0.1 to 19 nM.

**Q.** `Cc1noc(-c2ccc(C)c(NCC(=O)N3CCc4c(O)cccc43)c2)n1` [Example 86, 1-(4-hydroxyindolin-1-yl)-2-((2-methyl-5-(3-methyl-1,2,4-oxadiazol-5-yl)phenyl)amino)-ethan-1-one] was tested. Which IC50 did it give?
**A.** Its IC50 is 40 to 69 nM.

**Q.** `CCc1nsc(-c2ccc(C)c(NCC(=O)N3CCc4c(OC(F)(F)C(=O)O)cccc43)c2)n1` [Example 87, 2-((1-((5-(3-ethyl-1,2,4-thiadiazol-5-yl)-2-methyl-phenyl)glycyl)indolin-4-yl)oxy)-2,2-difluoro-acetic acid] was tested. Which IC50 did it give?
**A.** The IC50 was 40 to 69 nM.

**Q.** With `Cc1nsc(-c2ccc(C)c(NCC(=O)N3CCc4c(C(N)C(F)(F)F)cccc43)c2)n1` (stereo not shown) [Example 88, 1-(4-(1-amino-2,2,2-trifluoroethyl)indolin-1-yl)-2-((2-methyl-5-(3-methyl-1,2,4-thiadiazol-5-yl)phenyl)-amino)ethan-1-one] as the compound, how does the IC50 read?
**A.** Its IC50 is 40 to 69 nM.

**Q.** Which IC50 does the source give for `Cc1noc(-c2ccc(C)c(NCC(=O)N3CCc4c(C(N)C(F)(F)F)cccc43)c2)n1` (stereo not shown) [Example 89, 1-(4-(1-amino-2,2,2-trifluoroethyl)indolin-1-yl)-2-((2-methyl-5-(3-methyl-1,2,4-oxadiazol-5-yl)phenyl)-amino)ethan-1-one] here?
**A.** The IC50 was 70 to 99 nM.

**Q.** With `Cc1nsc(-c2ccc(C)c(NCC(=O)N3CCc4c3ccnc4C(C)(C)O)c2)n1` [Example 90, 1-(4-(2-Hydroxypropan-2-yl)-2,3-dihydro-1H-pyrrolo[3,2-c]pyridin-1-yl)-2-((2-methyl-5-(3-methyl-1,2,4-thiadiazol-5-yl)phenyl)amino)ethan-1-one] as the compound, how does the IC50 read?
**A.** The IC50 was > 100 nM.

**Q.** For `Cc1nsc(-c2ccc(C)c(NCC(=O)N3CCc4c3cncc4C(C)(C)O)c2)n1` [Example 91, 1-(4-(2-Hydroxypropan-2-yl)-2,3-dihydro-1H-pyrrolo[2,3-c]pyridin-1-yl)-2-((2-methyl-5-(3-methyl-1,2,4-thiadiazol-5-yl)phenyl)amino)ethan-1-one], which IC50 is on record?
**A.** Its IC50 is > 100 nM.

**Q.** Which IC50 does the source give for `Cc1nsc(-c2ccc(C)c(NCC(=O)N3CCc4c3ccnc4C(C)O)c2)n1` (stereo not shown) [Example 92, 1-(4-(1-hydroxyethyl)-2,3-dihydro-1H-pyrrolo[3,2-c]pyridin-1-yl)-2-((2-methyl-5-(3-methyl-1,2,4-thiadiazol-5-yl)phenyl)amino)ethan-1-one] here?
**A.** The IC50 was > 100 nM.

**Q.** For `COc1ccc(-c2nc(C)ns2)cc1NCC(=O)c1c[nH]c2c(OC)cccc12` [Example 93, 1-(7-methoxy-1H-indol-3-yl)-2-((2-methoxy-5-(3-methyl-1,2,4-thiadiazol-5-yl)phenyl)-amino)ethan-1-one], which IC50 is on record?
**A.** The IC50 was 0.1 to 19 nM.

**Q.** `COc1cc2[nH]cc(C(=O)CNc3cc(-c4nc(C)ns4)ccc3OC)c2cc1F` [Example 94, 1-(5-fluoro-6-methoxy-1H-indol-3-yl)-2-((2-methoxy-5-(3-methyl-1,2,4-thiadiazol-5-yl)phenyl)amino)ethan-1-one] was tested. Which IC50 did it give?
**A.** The IC50 was 0.1 to 19 nM.

**Q.** For `COc1ccc2c(C(=O)CNc3cc(-c4nc(C)ns4)ccc3C)c[nH]c2n1` [Example 95, 1-(6-methoxy-1H-pyrrolo[2,3-b]pyridin-3-yl)-2-((2-methyl-5-(3-methyl-1,2,4-thiadiazol-5-yl)phenyl)amino)ethan-1-one], which IC50 is on record?
**A.** The IC50 was 0.1 to 19 nM.

**Q.** `CCc1noc(-c2ccc(OC)c(NCC(=O)c3c[nH]c4cc(OC)ccc34)c2)n1` [Example 96, 2-((5-(3-ethyl-1,2,4-oxadiazol-5-yl)-2-methoxyphenyl)amino)-1-(6-methoxy-1H-indol-3-yl)ethan-1-one] was tested. Which IC50 did it give?
**A.** Its IC50 is 0.1 to 19 nM.

**Q.** Which IC50 does the source give for `CCc1noc(-c2ccc(OC)c(NCC(=O)c3c[nH]c4cc(OC)c(F)cc34)c2)n1` [Example 97, 2-((5-(3-ethyl-1,2,4-oxadiazol-5-yl)-2-methoxyphenyl)amino)-1-(5-fluoro-6-methoxy-1H-indol-3-yl) ethan-1-one] here?
**A.** The IC50 was 0.1 to 19 nM.
